Series [1] addresses Carbonic anhydrase 9 (Homo sapiens, UniProt Q16790). It is filed as cell-based, Sf9.
Description: Inhibition of human recombinant CA9 catalytic domain expressed in Sf9 cells by stopped flow CO2 hydration assay
The nature of series [2]: Solubility in water. It is filed as physicochemical. The settings on record: buffer.
Series [3] deals with Carbonic anhydrase 12 (Homo sapiens, UniProt O43570). Description: Inhibition of human recombinant CA12 catalytic domain expressed in Sf9 cells by stopped flow CO2 hydration assay.

What is called Ki is the dissociation constant of the complex between target and ligand, obtained from inhibition or displacement.

Sequence of Carbonic anhydrase 12 (O43570 whole entry, the tested form may be a part): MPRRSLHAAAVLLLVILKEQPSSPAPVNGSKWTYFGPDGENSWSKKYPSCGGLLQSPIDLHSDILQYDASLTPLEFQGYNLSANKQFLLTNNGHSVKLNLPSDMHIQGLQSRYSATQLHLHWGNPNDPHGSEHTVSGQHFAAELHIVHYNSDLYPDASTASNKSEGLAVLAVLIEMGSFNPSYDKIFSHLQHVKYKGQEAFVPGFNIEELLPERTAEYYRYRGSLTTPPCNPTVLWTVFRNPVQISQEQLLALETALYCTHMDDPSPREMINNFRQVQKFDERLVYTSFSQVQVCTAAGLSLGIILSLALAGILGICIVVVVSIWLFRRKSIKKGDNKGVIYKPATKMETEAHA

`Nc1ccc(/N=N/c2ccc(S(N)(=O)=O)cc2)cc1` had a Ki in series [1] of 6 nM.

`NS(=O)(=O)c1ccc(/N=N/c2ccc(NCS(=O)(=O)[O-])cc2)cc1.[Na+]` displayed a Ki in series [1] of 5.4 nM. The solubility result in series [2] is recorded as “Soluble”.

As to `CN(C)c1ccc(/N=N/c2ccc(S(N)(=O)=O)cc2)cc1`, in series [3], the Ki was 7.9 nM.

Turning to `NS(=O)(=O)c1ccc(/N=N/c2ccc(O)cc2)cc1`, the values for the Ki in series [1] and in series [3] were 6.4 nM and 5 nM, respectively.

Consider `CN(CS(=O)(=O)O)c1ccc(/N=N/c2cccc(S(N)(=O)=O)c2)cc1`, for which the Ki in series [1] amounted to 63 nM.

In the case of `CN(CS(=O)(=O)[O-])c1ccc(/N=N/c2ccc(S(N)(=O)=O)cc2)cc1.[Na+]`, the Ki in series [1] was 3.5 nM. The solubility entry in series [2] was “Soluble”.

In series [1], `NS(=O)(=O)c1cccc(/N=N/c2ccc(NCS(=O)(=O)O)cc2)c1` showed a Ki of 57 nM.

`Nc1ccc(/N=N/c2cccc(S(N)(=O)=O)c2)cc1` displayed a Ki in series [1] of 5.9 nM.

For the molecule `CNc1ccc(/N=N/c2ccc(S(N)(=O)=O)cc2)cc1`, the Ki in series [1] came to 4.9 nM; in series [3], 69.4 nM.

Take `NS(=O)(=O)c1cccc(/N=N/c2ccc(O)cc2)c1`: the Ki in series [1] was 6.1 nM; in series [3], 7.3 nM.

Molecule `CN(C)c1ccc(/N=N/c2cccc(S(N)(=O)=O)c2)cc1` showed a Ki in series [1] of 6.4 nM.

With `O=S(=O)(O)CNc1ccccc1` [SODIUM PHENYLAMINOMETHANESULFONATE], the affinity in series [1], expressed as Ki, was 5100 nM.

Take `CN(CS(=O)(=O)O)c1ccccc1` [SODIUM(METHYL(PHENYL)AMINO)METHANESULFONATE]: the inhibitory constant (Ki) in series [1] stood at 5850 nM.

These data come from ChEMBL document CHEMBL1152620, “Carbonic anhydrase inhibitors. Diazenylbenzenesulfonamides are potent and selective inhibitors of the tumor-associated isozymes IX and XII over the cytosolic isoforms I and II” (Bioorg Med Chem, 2009).
